Where “and” joins values, the source holds several entries; their conditions need not be identical. Identical values can stand only once.
How the values were obtained:
HSV-1 = settings: read-out: IC50 against HSV-1; cited from earlier work
PRV [1] = test: microbe, parasite or virus in culture; assay type: cell-based, pseudorabies virus; settings: for IC50: Suid alphaherpesvirus 1, HeLa, 24 h
HSV-2 = settings: read-out: IC50 against HSV-2; cited from earlier work
enterovirus 71 = settings: read-out: IC50 against enterovirus 71; cited from earlier work
HCMV = settings: read-out: IC50 against HCMV; cited from earlier work
in vitro = settings: human
PRV [2] = assay type: cell-based, pseudorabies virus

For `Oc1cccc2c1[nH]c1c(C3=C[C@@]4(O)CC/C=C\CCCCN5CC[C@@H]3[C@]3(C[C@@H]6/C=C\CCCCN6[C@H]34)C5)nccc12` [8-hydroxymanzamine A], which IC50 (HSV-1) is on record?
The IC50 was 3700 nM.

For `COc1cc(N2CCN(C)CC2)ccc1Nc1nccc(-c2cn(C)c3cnccc23)n1` [AZ191], which “reduction of production of infectious virus particles vs DMSO” value (PRV [1]) is on record?
Its value is 1.1 Log.

What about the “cytotoxicity / cell viability at the concentration used” value (“cytotoxicity / cell viability” below) (DF-1 cells) of the same compound?
Its value is “did not affect cell viability”.

What does the source list for `Nc1nc2c(ncn2COCCO)c(=O)[nH]1` [Acyclovir]?
reduction (positive control), primary screening (PRV [1]): 98%; IC50 (PRV [1]): 2810 ± 300 nM

For `COc1ccc2c(c1)[nH]c1c(C)nccc12` [Compound 2, harmine], which “inhibitory rate (reduction vs DMSO-treated cells), primary screening” value (PRV [1]) is on record?
The value was greater than 90%.

And the “reduction of production of infectious virus particles vs DMSO” value (PRV [1])?
The value was 2.3 Log.

And the IC50 (PRV [1])?
The IC50 was 1190 ± 90 nM.

What about the “cytotoxicity / cell viability” value (DF-1 cells) of the same compound?
Its value is “without cytotoxicity”.

And the IC50 (HSV-1)?
Its IC50 is 4560 nM.

What about the IC50 (HSV-2) of the same compound?
The IC50 was 1470 nM.

What about the IC50 (enterovirus 71) of the same compound?
Its IC50 is 10000 ± 2500 nM.

What about the IC50 (HCMV) of the same compound?
Its IC50 is 710 ± 19 nM.

And the CC50 (in vitro)?
Its CC50 is greater than 30000 nM.

Which “inhibitory rate (reduction vs DMSO-treated cells), primary screening” value (PRV [1]) does the source give for `COc1ccc2c3ccnc(C)c3n(C)c2c1` [Compound 3, 9-methyl-harmine] here?
The value was > 90% and > 99%.

And the IC50 (PRV [1])?
Its IC50 is 520 ± 40 nM.

What about the CC50 (in vitro) of the same compound?
Its CC50 is greater than 30000 nM.

For `CCn1c2ccccc2c2cc(Nc3ccnc(NCCCN4CCOCC4)n3)ccc21` [EHop-016], which “viral protein load (Western blot)” value (PRV [2]) is on record?
The value was “reduced the viral protein load”.

What about the “cytotoxicity / cell viability” value (DF-1 cells) of the same compound?
The value was “without cytotoxicity”.

Which results are given for `CCN(c1nc(N)c(C(=O)N=C(N)N)nc1Cl)C(C)C` [EIPA, 5-[N-ethyl-N-isopropyl] amiloride]?
viral protein load (US9 relative to β-actin, densitometry) (PRV [2]): 0.21 ± 0.01; cytotoxicity / cell viability at the concentration used (DF-1 cells): without cytotoxicity

For ML-141, which “viral protein load (Western blot)” value (PRV [2]) is on record?
Its value is “reduced the viral protein load”.

What about the “cytotoxicity / cell viability” value (DF-1 cells) of the same compound?
Its value is “without cytotoxicity”.

With Mazamine A as the compound, how does the IC50 (HSV-1) read?
The IC50 was 1000 nM.

With manzamine A monohydrochloride as the compound, how does the IC50 (HSV-1) read?
Its IC50 is 100 nM.

With manzamine A monotartrate as the compound, how does the IC50 (HSV-1) read?
The IC50 was 100 nM.

From article PMC10140166 (The Journal of Biological Chemistry, 2023)
